Assay results from the NIST ThermoML archive (doi:10.1021/acs.jced.8b00236).
Numbers after ± are expanded uncertainties.

Assay: mn = molality of the nth substance listed, in mol/kg
Settings: 75 kPa, Liquid; for viscosity: Capillary tube (Ostwald / Ubbelohde) method; for speed of sound: Frequency=3 MHz, Single path-length method; for mass density: Vibrating tube method

## NCCC(=O)O [3-aminopropanoic acid] + O
288.15 K, m1 = 0.1393
  viscosity: 1.179 ± 0.024 mPa·s
  speed of sound: 1475.7 ± 4 m/s
  mass density: 1003.45 ± 0.3 kg/m3
288.15 K, m1 = 0.2789
  viscosity: 1.214 ± 0.025 mPa·s
  speed of sound: 1484.8 ± 4 m/s
  mass density: 1007.7 ± 0.3 kg/m3
288.15 K, m1 = 0.4194
  viscosity: 1.252 ± 0.026 mPa·s
  speed of sound: 1493.8 ± 4 m/s
  mass density: 1011.88 ± 0.3 kg/m3
288.15 K, m1 = 0.5603
  viscosity: 1.291 ± 0.027 mPa·s
  speed of sound: 1502.7 ± 4 m/s
  mass density: 1015.98 ± 0.3 kg/m3
288.15 K, m1 = 0.7021
  viscosity: 1.332 ± 0.028 mPa·s
  speed of sound: 1511.6 ± 4 m/s
  mass density: 1020 ± 0.3 kg/m3
288.15 K, m1 = 0.8451
  viscosity: 1.372 ± 0.028 mPa·s
  speed of sound: 1520.4 ± 4 m/s
  mass density: 1023.96 ± 0.3 kg/m3
288.15 K, m1 = 0.9881
  viscosity: 1.414 ± 0.029 mPa·s
  speed of sound: 1529 ± 4 m/s
  mass density: 1027.81 ± 0.3 kg/m3
288.15 K, m1 = 1.132
  viscosity: 1.46 ± 0.03 mPa·s
  speed of sound: 1537.5 ± 4 m/s
  mass density: 1031.61 ± 0.3 kg/m3
293.15 K, m1 = 0.1393
  viscosity: 1.033 ± 0.022 mPa·s
  speed of sound: 1491.8 ± 4 m/s
  mass density: 1002.51 ± 0.3 kg/m3
293.15 K, m1 = 0.2789
  viscosity: 1.065 ± 0.022 mPa·s
  speed of sound: 1500.8 ± 4 m/s
  mass density: 1006.72 ± 0.3 kg/m3
293.15 K, m1 = 0.4194
  viscosity: 1.099 ± 0.023 mPa·s
  speed of sound: 1509.7 ± 4 m/s
  mass density: 1010.86 ± 0.3 kg/m3
293.15 K, m1 = 0.5603
  viscosity: 1.134 ± 0.024 mPa·s
  speed of sound: 1518.5 ± 4 m/s
  mass density: 1014.91 ± 0.3 kg/m3
293.15 K, m1 = 0.7021
  viscosity: 1.174 ± 0.024 mPa·s
  speed of sound: 1527.2 ± 4 m/s
  mass density: 1018.9 ± 0.3 kg/m3
293.15 K, m1 = 0.8451
  viscosity: 1.216 ± 0.025 mPa·s
  speed of sound: 1535.9 ± 4 m/s
  mass density: 1022.82 ± 0.3 kg/m3
293.15 K, m1 = 0.9881
  viscosity: 1.259 ± 0.026 mPa·s
  speed of sound: 1544.4 ± 4 m/s
  mass density: 1026.64 ± 0.3 kg/m3
293.15 K, m1 = 1.132
  viscosity: 1.307 ± 0.027 mPa·s
  speed of sound: 1552.7 ± 4 m/s
  mass density: 1030.4 ± 0.3 kg/m3
298.15 K, m1 = 0.1393
  viscosity: 0.9201 ± 0.019 mPa·s
  speed of sound: 1505.5 ± 4 m/s
  mass density: 1001.3 ± 0.3 kg/m3
298.15 K, m1 = 0.2789
  viscosity: 0.9466 ± 0.02 mPa·s
  speed of sound: 1514.3 ± 4 m/s
  mass density: 1005.48 ± 0.3 kg/m3
298.15 K, m1 = 0.4194
  viscosity: 0.9744 ± 0.02 mPa·s
  speed of sound: 1522.9 ± 4 m/s
  mass density: 1009.59 ± 0.3 kg/m3
298.15 K, m1 = 0.5603
  viscosity: 0.9995 ± 0.021 mPa·s
  speed of sound: 1531.4 ± 4 m/s
  mass density: 1013.63 ± 0.3 kg/m3
298.15 K, m1 = 0.7021
  viscosity: 1.034 ± 0.022 mPa·s
  speed of sound: 1539.9 ± 4 m/s
  mass density: 1017.6 ± 0.3 kg/m3
298.15 K, m1 = 0.8451
  viscosity: 1.062 ± 0.022 mPa·s
  speed of sound: 1548.2 ± 4 m/s
  mass density: 1021.51 ± 0.3 kg/m3
298.15 K, m1 = 0.9881
  viscosity: 1.1 ± 0.023 mPa·s
  speed of sound: 1556.4 ± 4 m/s
  mass density: 1025.34 ± 0.3 kg/m3
298.15 K, m1 = 1.132
  viscosity: 1.146 ± 0.024 mPa·s
  speed of sound: 1564.5 ± 4 m/s
  mass density: 1029.1 ± 0.3 kg/m3
303.15 K, m1 = 0.1393
  viscosity: 0.824 ± 0.017 mPa·s
  speed of sound: 1517.7 ± 4 m/s
  mass density: 999.877 ± 0.3 kg/m3
303.15 K, m1 = 0.2789
  viscosity: 0.8427 ± 0.018 mPa·s
  speed of sound: 1526.1 ± 4 m/s
  mass density: 1004.02 ± 0.3 kg/m3
303.15 K, m1 = 0.4194
  viscosity: 0.8667 ± 0.018 mPa·s
  speed of sound: 1534.5 ± 4 m/s
  mass density: 1008.09 ± 0.3 kg/m3
303.15 K, m1 = 0.5603
  viscosity: 0.8942 ± 0.019 mPa·s
  speed of sound: 1542.8 ± 4 m/s
  mass density: 1012.08 ± 0.3 kg/m3
303.15 K, m1 = 0.7021
  viscosity: 0.9256 ± 0.019 mPa·s
  speed of sound: 1550.9 ± 4 m/s
  mass density: 1016 ± 0.3 kg/m3
303.15 K, m1 = 0.8451
  viscosity: 0.959 ± 0.02 mPa·s
  speed of sound: 1559 ± 4 m/s
  mass density: 1019.86 ± 0.3 kg/m3
303.15 K, m1 = 0.9881
  viscosity: 1.001 ± 0.021 mPa·s
  speed of sound: 1566.9 ± 4 m/s
  mass density: 1023.63 ± 0.3 kg/m3
303.15 K, m1 = 1.132
  viscosity: 1.042 ± 0.022 mPa·s
  speed of sound: 1574.7 ± 4 m/s
  mass density: 1027.33 ± 0.3 kg/m3
308.15 K, m1 = 0.1393
  viscosity: 0.733 ± 0.015 mPa·s
  speed of sound: 1527.9 ± 4 m/s
  mass density: 998.23 ± 0.3 kg/m3
308.15 K, m1 = 0.2789
  viscosity: 0.7526 ± 0.016 mPa·s
  speed of sound: 1536 ± 4 m/s
  mass density: 1002.34 ± 0.3 kg/m3
308.15 K, m1 = 0.4194
  viscosity: 0.7692 ± 0.016 mPa·s
  speed of sound: 1544 ± 4 m/s
  mass density: 1006.39 ± 0.3 kg/m3
308.15 K, m1 = 0.5603
  viscosity: 0.7923 ± 0.017 mPa·s
  speed of sound: 1551.9 ± 4 m/s
  mass density: 1010.35 ± 0.3 kg/m3
308.15 K, m1 = 0.7021
  viscosity: 0.8219 ± 0.017 mPa·s
  speed of sound: 1559.7 ± 4 m/s
  mass density: 1014.25 ± 0.3 kg/m3
308.15 K, m1 = 0.8451
  viscosity: 0.8509 ± 0.018 mPa·s
  speed of sound: 1567.4 ± 4 m/s
  mass density: 1018.1 ± 0.3 kg/m3
308.15 K, m1 = 0.9881
  viscosity: 0.8756 ± 0.018 mPa·s
  speed of sound: 1574.9 ± 4 m/s
  mass density: 1021.85 ± 0.3 kg/m3
308.15 K, m1 = 1.132
  viscosity: 0.9126 ± 0.019 mPa·s
  speed of sound: 1582.3 ± 4 m/s
  mass density: 1025.53 ± 0.3 kg/m3
